According to patent US20090044291A1, “DROUGHT-RESISTANT PLANTS AND METHOD FOR PRODUCING THE PLANTS” (D-Helix, priority 2006, published 2009):

Key:
[1] = biological target: T1, Arabidopsis ABAR/CHLH (H subunit of Mg-chelatase) (Arabidopsis thaliana, UniProt Q9FNB0); experiment: ABA binding assay with purified yeast-expressed ABAR/CHLH; conditions: purified ABAR, 30 nM [3H]ABA, 1 to 1000-fold molar excess of competitor
T1 construct: 6xHis; made in house; host or cells: Pichia methanolica (Pichia Methanolica Expression kit, Invitrogen)
T1 sequence (Q9FNB0 50-1381): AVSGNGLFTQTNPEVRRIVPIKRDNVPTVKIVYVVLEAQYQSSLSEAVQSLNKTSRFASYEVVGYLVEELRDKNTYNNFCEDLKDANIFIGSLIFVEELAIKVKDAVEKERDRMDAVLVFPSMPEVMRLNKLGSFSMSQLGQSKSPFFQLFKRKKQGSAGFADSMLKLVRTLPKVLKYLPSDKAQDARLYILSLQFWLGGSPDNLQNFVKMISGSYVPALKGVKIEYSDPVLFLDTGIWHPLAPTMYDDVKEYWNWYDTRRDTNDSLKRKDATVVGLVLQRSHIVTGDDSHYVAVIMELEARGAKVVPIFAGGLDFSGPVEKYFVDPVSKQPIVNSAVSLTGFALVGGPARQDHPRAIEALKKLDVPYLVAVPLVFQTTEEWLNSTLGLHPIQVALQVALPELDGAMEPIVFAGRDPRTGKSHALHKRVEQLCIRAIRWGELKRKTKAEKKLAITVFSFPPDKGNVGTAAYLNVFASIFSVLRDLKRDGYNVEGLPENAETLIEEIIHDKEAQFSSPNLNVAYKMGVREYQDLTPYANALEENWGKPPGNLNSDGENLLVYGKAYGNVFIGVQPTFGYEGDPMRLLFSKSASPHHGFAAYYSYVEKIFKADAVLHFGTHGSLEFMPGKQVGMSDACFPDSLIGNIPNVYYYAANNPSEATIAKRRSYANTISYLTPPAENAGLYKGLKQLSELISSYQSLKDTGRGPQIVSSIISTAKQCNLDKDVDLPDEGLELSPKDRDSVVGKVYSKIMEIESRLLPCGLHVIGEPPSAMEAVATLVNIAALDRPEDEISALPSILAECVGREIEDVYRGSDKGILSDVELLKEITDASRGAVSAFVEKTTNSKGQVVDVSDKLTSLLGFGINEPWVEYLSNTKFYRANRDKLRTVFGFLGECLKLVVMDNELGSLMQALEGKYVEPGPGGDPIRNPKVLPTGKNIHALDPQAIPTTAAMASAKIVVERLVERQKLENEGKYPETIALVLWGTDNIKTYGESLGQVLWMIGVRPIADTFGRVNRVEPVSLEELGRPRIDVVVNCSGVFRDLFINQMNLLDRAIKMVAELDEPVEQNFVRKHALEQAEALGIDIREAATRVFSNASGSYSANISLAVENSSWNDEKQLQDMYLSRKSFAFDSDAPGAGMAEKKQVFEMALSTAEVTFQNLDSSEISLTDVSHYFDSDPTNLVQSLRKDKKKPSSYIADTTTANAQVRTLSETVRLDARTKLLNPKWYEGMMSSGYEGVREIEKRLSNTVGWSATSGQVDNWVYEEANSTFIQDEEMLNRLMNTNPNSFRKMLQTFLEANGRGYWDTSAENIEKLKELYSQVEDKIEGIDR
Procedure: Full-length ABAR/CHLH coding sequence was PCR-amplified with forward primer 5′-[…]-3′ (SEQ ID NO:30) and reverse primer 5′-[…]-3′ (SEQ ID NO:31). The recombinant ABAR/CHLH was expressed in yeast as a fusion protein with a 6×His (SEQ ID NO:32) tag by using Pichia Methanolica Expression kit (Invitrogen) and the fusion protein was affinity-purified according to manufacturer's instructions.
The ABA-binding activity of ABAR was assayed according to the previously described procedures (Zhang, D. P. et al., Plant physiol. 128:714-725 (2002)) with modifications. The binding medium (medium A) contained 50 mM Tris-HCl (pH 7.0), 2 mM MgCl2, 1 mM CaCl2, and 250 mM mannitol. The medium for extracting the Arabidopsis natural ABAR/CHLH protein (medium B) was the medium A supplemented with 2 mM 1,4-dithiothreitol (DTT), 1 mM phenylmethyl sulfonyl fluoride (PMSF), […] leupeptin, and […] pepstin A but minus 250 mM mannitol. [^3H](+)ABA (American Radiolabeled Chemicals, 2.37×10^12 Bq mmol^−1, purity 98.4%) at 30 nM, or at a step gradient of concentrations from 0 to 70 nM (when analyzing ABA binding kinetics, see FIG. 1a, d1), together with 2 μg purified yeast-expressed ABAR/CHLH protein or 50 μg proteins of the crude extracts from two-week-old Arabidopsis seedlings, was added into the medium A. The total volume for the binding assays was adjusted to 200 μl. The mixtures were incubated at 25° C. for 30 min, and then quickly placed on ice. Following the addition of 100 μl 0.5% (w/v) Dextran T70-coated charcoal (DCC) to remove the free [^3H]ABA by adsorption, the mixtures were maintained on ice for 5 min, and then centrifuged to remove DCC before the radioactivity in the supernatant was counted. The specific binding was determined by the difference between the radioactivity bound to the immuno-purified ABAR protein or crude extracts of Arabidopsis seedlings incubated only with [^3H]ABA (total binding) and radioactivity bound in the presence of 1,000-fold molar excess of unlabeled (+)-ABA (Sigma; non-specific binding. Non-specific binding in all the assays was lower than 10% of the total binding, see FIG. 1a, d1). The unlabeled ABA was added into the incubation medium at the same time with [^3H]ABA. The ABA-binding activity of the crude ABA-binding protein from Arabidopsis seedling was expressed as the number of nanomoles of [^3H]ABA specifically bound per gram of protein, and that of the immuno-purified ABAR protein as the number of moles of [^3H]ABA per mole of protein. The stereo-specificity of the ABA-binding was assayed as described previously (Zhang, D. P. et al., Plant physiol. 128:714-725 (2002)). […] The conditions of incubation were the same as described above (the incubation medium containing 30 nM [^3H]ABA), and the two ABA isomers and (+)-ABA were assayed in the concentrations ranging from 1 to 1000-fold molar excess of [^3H]ABA.

[2] = test system: inducible RNAi transgenic plants (ABAR/CHLH expression); experiment: Induction of RNAi by 17beta-estradiol in inducible RNAi lines; assay type: in vivo, Arabidopsis thaliana; conditions: 10 μM 17beta-estradiol
Text: These constructs were introduced in Agrobacterium tumefaciens GV3101 strain and transformed into plants by floral infiltration. The homozygous T3 seeds of the transgenic plants were used for analysis. […] The seeds of the gun4-1, gun5-1 and cch mutants were a generous gift from Dr. J. Chory (The Salk Institute, La Jolla, Calif.). The seeds of the mutants hy1-1 (ABRC#: CS67), hy2-1 (CS68) and chl-2 (CS3362) were obtained from the Arabidopsis Biological Resource Center (ABRC). Except for the mutants hy1-1 and hy2-1 with the ecotype Ler as background, all the other mutants were isolated from the ecotype Columbia. Plants were grown in a growth chamber at 20-21° C. on Murashige-Skoog (MS) medium at about 80 μmol photons m^−2 s^−1, or in compost soil at about 120 μmol photons m^−2 s^−1 over a 16-h photoperiod.
For the treatment of seedlings of the inducible RNAi lines with 17beta-estradiol (Sigma) to induce down-regulation of ABAR/CHLH expression, 17beta-estradiol was diluted from 10 mM stock solution prepared in dimethyl sulfoxide (DMSO) to 10 μM, and equivalent volume of DMSO was included in the 17beta-estradiol-free-treated controls. […] The amounts of ABAR/CHLH protein were also determined at the same time by immunoblotting. […] The expression of ABAR/CHLH and some ABA-responsive genes was assessed by real-time PCR.

gl1 plants = experiment: Treatments with norflurazon and chloramphenicol; assay type: in vivo, Arabidopsis thaliana
Procedure: The reagent chloramphenicol (Sigma; CP) was diluted from 100 mg/ml stock solutions prepared in ethanol to 150 μg/ml, and equivalent volume of ethanol was included in the chloramphenicol-free-treated controls. For norflurazon (Sigma; Nf) treatment, Nf was diluted from 100 mM stock solutions prepared in DMSO to 3 μM, and equivalent volume of DMSO was included in the Nf-free-treated controls. The 3-week-old seedlings were treated with CP or Nf by irrigation of either 150 μg/ml CP or 3 μM Nf dissolved both in distilled water. Stomatal response to exogenous (±)-ABA was assayed at different time intervals after the application of the reagents, and the amounts of ABAR/CHLH protein were immuno-determined at the same time.
ABA contents in tissues were assayed by radioimmunoassay method as described previously (Zhang, D. P. et al., Plant physiol. 128:714-725 (2002)).

[3] = biological target: T2, natural ABAR/CHLH protein (Arabidopsis thaliana, UniProt Q9FNB0); experiment: Pull-down assay with anti-ABAR serum; assay type: binding; conditions: 30 nM [3H](+)ABA
T2 construct: 50 μg proteins of the crude extracts from two-week-old Arabidopsis seedlings; from tissue; host or cells: crude extracts of two-week-old Arabidopsis seedlings / leaves of gl1 (WT), RNAi line 12 and overexpressor line 1
T2 sequence (Q9FNB0 50-1381): T1 sequence (Q9FNB0 50-1381)
Procedure: The pull down assay was done as follows to detect ABA binding to the natural ABAR/CHLH protein. Total proteins were extracted from two-week-old Arabidopsis seedlings with the medium C composed of the medium B supplemented with 250 mM mannitol. The crude extracts (3 mg total proteins) was incubated by gently shaking in the medium C (400 μl) containing 30 nM [^3H](+)ABA at 4° C. for 2 h, and the anti-ABAR^N serum (10 μg, described below) was added into the medium for a further incubation at 4° C. for 2 h, and then the medium was supplemented by 100 μl 25% (v/v) protein A-agarose (Santa Cruz) for a final incubation at 4° C. for 2 h. Following the incubation, protein A-agarose was recovered by a brief centrifugation and washed with 1 ml medium C. The pellets were resuspended in […] water and mixed with scintillation fluid before the radioactivity (d.p.m., disintegrations per minute) of the bound [^3H](+)ABA was measured.
Three independent control experiments were performed for the pull down assays. A control was done by addition of the same amounts of mouse preimmune serum instead of the antiserum to the medium of the above-described pull down assay in the extracts from the leaves of wild-type plants. […]

`CC1=CC(=O)CC(C)(C)C1(O)/C=C/C(C)=C\C(=O)O` (single isomer, unassigned; (-)) [(−)-ABA] was tested, and the “displacement of [3H](+)-ABA binding” value [1] was “not”.
`C[C@]12CC[C@@H]3c4ccc(O)cc4CC[C@H]3[C@@H]1CC[C@@H]2O` [17beta-estradiol] was tested, and the “ABAR transcript and product / ABAR levels” value [2] was “significant decline” and the “ABAR transcript and product / ABAR levels” value ([2]; listed as 17beta-oestradiol) was “decrease”.
With `O=C(N[C@H](CO)[C@H](O)c1ccc([N+](=O)[O-])cc1)C(Cl)Cl` [chloramphenicol] the ABA contents (gl1 plants; CP-treated plants, 150 μg/ml by irrigation) was “remained unchanged”, the ABAR levels (gl1 plants; after CP treatment (FIG. 9)) was “decrease” and the “stomatal movement response to ABA” value (gl1 plants; after CP treatment (FIG. 9), 10 μM (±)-ABA) was “ABA-insensitive”.
`CNc1cnn(-c2cccc(C(F)(F)F)c2)c(=O)c1Cl` [norflurazon] was tested, and the ABA contents (gl1 plants; Nf-treated plants, 3 μM by irrigation) was “remained unchanged”.
In the case of `CC(C=CC1(O)C(C)=CC(=O)CC1(C)C)=CC(=O)O` (stereo not drawn) [trans-ABA], the “displacement of [3H](+)-ABA binding” value [1] is reported as “not”.
In the case of (+)-ABA, the “displacement of [3H](+)-ABA binding” value [1] is reported as “efficient displacement” and the “displacement of [3H]ABA / stereospecificity of pulled-down ABA-binding activity” value [3] is reported as “highly stereospecific”.
